Laboratory results taken from publication PMC6540015, “New Quinolone-Based Thiosemicarbazones Showing Activity Against Plasmodium falciparum and Mycobacterium tuberculosis” (Molecules, 2019).
Converted amounts (≈) assume the structure as drawn. Read-outs that look alike come from different tables or passages of the source.

Columns and labels:
[1] = tested on: 3D7 strain of Plasmodium falciparum; experiment: In vitro anti-plasmodial pLDH assay; format: cell-based
[2] = tested on: M. tuberculosis H37Rv strain; experiment: microbe, parasite or virus in culture; format: cell-based; conditions: Mycobacterium tuberculosis, concentration inhibiting 90% of bacterial population; for MIC: read-out: MIC90 H37Rv
[3] = Plasmodium falciparum, chloroquine sensitive strain 3D7 of P. falciparum, 48 h, na = not active, read-out: IC50 Pf 3D7
[4] = Plasmodium falciparum, 3D7, 48 h, read-out: IC50 Pf 3D7, chloroquine sensitive strain 3D7 of P. falciparum, na = not active

Structure (SMILES)	IC50 [1, 3]	MIC90 [2]	MIC [2]	melting point	IC50 Pf 3D7 ([1]; chloroquine sensitive strain 3D7 of P. falciparum, 48 h, na = not active)	IC50 [1, 4]	IC50 ([1]; read-out: IC50 Pf 3D7, chloroquine sensitive strain 3D7 of P. falciparum, 48 h, na = not active)
CCN(CC)CCCC(C)Nc1ccnc2cc(Cl)ccc12 (stereo not drawn) [CQ, Chloroquine, reference compound]	0.012 µM						
CCOC(=O)c1c[nH]c2ccc(C(C)=O)cc2c1=O [Compound 8]	4 µM						
CCn1cc(C(=O)NCCCn2ccnc2)c(=O)c2cc(/C(C)=N/NC(N)=S)ccc21 [Compound 11, (E)-N-(3-(1H-imidazol-1-yl)propyl)-6-(1-(2-carbamothioylhydrazono)ethyl)-1-ethyl-4-oxo-1,4-dihydroquinolone-3-carboxamide]	3.7 µM	> 125 µM	> 125 µM	187 to 189 °C			
CCn1cc(C(=O)NCCNCCO)c(=O)c2cc(/C(C)=N/NC(N)=S)ccc21 [Compound 12, (E)-6-(1-(2-carbamothioylhydrazono)ethyl)-1-ethyl-N-(2-((2-hydroxyethyl)amino)ethyl)-4-oxo-1,4-dihydroquinolone-3-carboxamide]		73.4 µM (≈ 30.7 µg/mL)	73.4 µM (≈ 30.7 µg/mL)	183 to 185 °C	not active		
C/C(=N\NC(N)=S)c1ccc2c(c1)c(=O)c(C(=O)NCCNCCO)cn2Cc1ccccc1 [Compound 13, (E)-1-benzyl-6-(1-(2-carbamothioylhydrazono)ethyl)-N-(2-((2-hydroxyethyl)amino)ethyl)-4-oxo-1,4-dihydroquinolone-3-carboxamide]		2.7 µM (≈ 1.3 µg/mL)	2.7 µM (≈ 1.3 µg/mL)	197 to 199 °C		4.1 µM	
C/C(=N\NC(N)=S)c1ccc2c(c1)c(=O)c(C(=O)NCCNCCO)cn2Cc1ccc(Br)cc1 [Compound 14, (E)-1-(4-bromobenzyl)-6-(1-(2-carbamothioylhydrazono)ethyl)-N-(2-((2-hydroxyethyl)amino)ethyl)-4-oxo-1,4-dihydroquinolone-3-carboxamide]		10.3 µM (≈ 5.76 µg/mL)	10.3 µM (≈ 5.76 µg/mL)	200 to 202 °C		4 µM	4.7 µM
C/C(=N\NC(N)=S)c1ccc2c(c1)c(=O)c(C(=O)NCCNCCO)cn2Cc1ccc(C(F)(F)F)cc1 [Compound 15, (E)-6-(1-(2-carbamothioylhydrazono)ethyl)-N-(2-((2-hydroxyethyl)amino)ethyl)-4-oxo-1-(4-(trifluoromethyl)benzyl)-1,4-dihydroquinolone-3-carboxamide]		2 µM (≈ 1.1 µg/mL)		199 to 201 °C		1.2 µM	
C/C(=N\NC(N)=S)c1ccc2c(c1)c(=O)c(C(=O)NCCNCCO)cn2Cc1ccc(Cl)cc1Cl [Compound 16, (E)-6-(1-(2-carbamothioylhydrazono)ethyl)-1-(2,4-dichlorobenzyl)-N-(2-((2-hydroxyethyl)amino)ethyl)-4-oxo-1,4-dihydroquinolone-3-carboxamide]		4.8 µM (≈ 2.64 µg/mL)	4.8 µM (≈ 2.64 µg/mL)	205 to 207 °C		3.1 µM	
COCCNC(=O)c1cn(Cc2ccccc2)c2ccc(/C(C)=N/NC(N)=S)cc2c1=O [Compound 17, (E)-1-benzyl-6-(1-(2-carbamothioylhydrazono)ethyl)-N-(2-methoxyethyl)-4-oxo-1,4-dihydroquinolone-3-carboxamide]		44.2 µM (≈ 20 µg/mL)	44.2 µM (≈ 20 µg/mL)	199 to 200 °C		24.6 µM	
COCCNC(=O)c1cn(Cc2ccc(Br)cc2)c2ccc(/C(C)=N/NC(N)=S)cc2c1=O [Compound 18, (E)-1-(4-bromobenzyl)-6-(1-(2-carbamothioylhydrazono)ethyl)-N-(2-methoxyethyl)-4-oxo-1,4-dihydroquinolone-3-carboxamide]		15 µM (≈ 7.96 µg/mL)		204 to 206 °C		9.9 µM	
COCCNC(=O)c1cn(Cc2ccc(Cl)cc2Cl)c2ccc(/C(C)=N/NC(N)=S)cc2c1=O [Compound 19, (E)-6-(1-(2-carbamothioylhydrazono)ethyl)-1-(2,4-dichlorobenzyl)-N-(2-methoxyethyl)-4-oxo-1,4-dihydroquinolone-3-carboxamide]		10.2 µM (≈ 5.31 µg/mL)		209 to 211 °C			
CCOC(=O)c1cn(Cc2ccc(Cl)cc2Cl)c2ccc(/C(C)=N/NC(N)=S)cc2c1=O [Compound 21, Ethyl-(E)-6-(1-(2-carbamothioylhydrazono)ethyl)-1-(2,4-dichlorobenzyl)-4-oxo-1,4-dihydroquinolone-3-carboxylate]		31.6 µM (≈ 15.5 µg/mL)	31.6 µM (≈ 15.5 µg/mL)	211 to 213 °C			
CO[C@H]1/C=C/O[C@@]2(C)Oc3c(C)c(O)c4c(O)c(c(/C=N/N5CCN(C)CC5)c(O)c4c3C2=O)NC(=O)/C(C)=C\C=C\[C@H](C)[C@H](O)[C@@H](C)[C@@H](O)[C@@H](C)[C@H](OC(C)=O)[C@@H]1C [RF, Rifampicin, reference compound]		0.062 µM (≈ 0.051 µg/mL)					
